Source: paper PMC6353801, “Enhanced Anti-diabetic Effect of Berberine Combined With Timosaponin B2 in Goto-Kakizaki Rats, Associated With Increased Variety and Exposure of Effective Substances Through Intestinal Absorption” (Frontiers in Pharmacology, 2019)
Read-outs that look alike come from different tables or passages of the source.

Assays:
[1] = Body weight, food intake, organ coefficients and side effects in GK rats; type: in vivo, rat
Protocol: (§1) Four-week-old male GK rats were fed a high-fat diet, and age-matched non-diabetic Wistar rats were fed standard chow as the control group. Under these dietary conditions, blood glucose was estimated each week for 7 weeks in 12-h fasted rats using a portable glucometer (One Touch Sure Step Meter, Johnson & Johnson, United States) by drawing the blood from the tail vein. GK rats with fasting blood glucose levels (FBG) above 16.7 mM were considered as diabetic rats, and only uniformly diabetic rats were used in this study. […] All the drugs were suspended in 0.5% carboxymethylcellulose sodium (CMC-Na) solution for oral gavage (10 ml/kg) once per day (at 9:00) for 6 weeks. Simultaneously, the Wistar and vehicle groups received vehicle over the treatment period. Food consumption and body weight were measured every week throughout the experimental periods. Non-fasting blood glucose (NFBG) levels were determined by collecting blood samples from the tail vein (at 9:00), and FBG levels were determined after a 6-h fast (at 15:00) on days 0, 7, 14, 21, and 42. On day 28, an oral glucose tolerance test (OGTT) was performed after an overnight fast. […] On day 42, the rats were anesthetized with urethane (1.4 g/kg, dissolved in saline) after an overnight fast and were sacrificed to collect the liver, kidney, heart, and spleen. The organs were weighed after washing with saline and drying to calculate the organ coefficient, namely, the ratio between the weight of organs and the body in each rat.

GK rats [2] = assay: NFBG and FBG levels in GK rats, 6-week oral treatment; type: in vivo, rat; conditions: during 6-week treatment, TB-2 33.3, BBR 66.7, TB-2+BBR 100, metformin 200 mg/kg/day
Protocol: as §1

in vivo [3] = conditions: male, Wistar, rat, po
[4] = male, Wistar, rat, in vivo
primary rat hepatocytes = assay: Hepatic metabolism in primary hepatocytes; conditions: BBR 1 μM, 3 h, ABT 1 mM, TB-2 0.1 to 30 μM
[5] = male, Wistar, rat, in vivo; remark: listed apart in the source
[6] = Transport in Caco-2 cells; type: in vitro ADME, human; conditions: human; for efflux ratio at 120 min: Caco-2, Caco-2, no inhibitor, Papp (BL−AP)/Papp (AP−BL); for Papp A→B at 120 min / Papp B→A at 120 min: Caco-2, no inhibitor, digoxin 10 μM, TB-2 5 μM, BBR 10 μM
Protocol: (§2) The culture medium was changed every other day for the first 7 days and then daily for the next 14 days. […] Prior to the transport experiments, the cell monolayers were washed three times with HBSS at 37°C. […] At the same time, the corresponding opposite side was filled with medium as the receiving chamber. After incubation for 30, 60, 90, and 120 min, 250-μl aliquots of the medium was taken from the receiving chamber at each time point, and prepared for analysis by HPLC–MS/MS. […] where (ΔQ/Δt) is the linear slope of the drug concentration in the receptor chamber over time, A represents the surface area of the membrane (1.12 cm^2), and C0 is the initial concentration of drug in the donor chamber. The efflux ratio (ERpermeability) for BL to AP and AP to BL transport was defined by the following equation: […] where Papp (BL–AP) and Papp (AP–BL) are the apparent permeability of drugs from the basolateral (BL) to apical (AP) and AP to BL sides of the monolayer, respectively.

GK rats [7] = assay: Oral glucose tolerance test (OGTT) in GK rats on day 28; type: in vivo, rat; conditions: after 4 weeks of treatment, glucose 2 g/kg oral
Protocol: as §1

in vivo [8] = conditions: male, Wistar, rat, po; remark: listed apart in the source
[9] = ref Cai et al., 2008; cited from earlier work
[10] = PK in systemic plasma of GK rats after repeated oral administration (day 35); type: in vivo, rat; conditions: rat, in vivo
Protocol: Analyses were performed on a Shimadzu LCMS-8030 triple quadrupole system (Shimadzu Corp., Japan) equipped with an electrospray ionization source. Data processing was performed using Shimadzu LC–MS LabSolutions (version 5.42 SP4, Shimadzu, Japan). Chromatographic separation was carried out on a Waters CORTECS C18+ column (100 mm × 2.1 mm, 2.7 μm, Ireland) with a security guard C18+ column (5 mm × 2.1 mm, 2.7 μm, Ireland). […] The gradient elution was 85% B from 0 to 2.5 min, 85% B–83% B from 2.5 to 3.0 min, 83% B from 3.0 to 6.0 min, 83% B–40% B from 6.0 to 6.5 min, 40% B from 6.5 to 7.0 min, 40% B–85% B from 7.0 to 7.2 min, and 85% B from 7.2 to 12 min. […] The optimized precursor-to-product ion pairs (collision energy) were in the positive mode as follows: m/z 579.20–255.15 (28 V) for TB-2 (at 4.1 min) and timosaponin A3 (at 6.1 min) and 271.50–154.70 (25 V) for tolbutamide (IS, at 5.8 min). […] If the concentrations of the compounds were over the linear range, the relevant samples were diluted with blank matrix by a factor of 10. […] Four-week-old male GK rats were fed a high-fat diet, and age-matched non-diabetic Wistar rats were fed standard chow as the control group. Under these dietary conditions, blood glucose was estimated each week for 7 weeks in 12-h fasted rats using a portable glucometer (One Touch Sure Step Meter, Johnson & Johnson, United States) by drawing the blood from the tail vein. GK rats with fasting blood glucose levels (FBG) above 16.7 mM were considered as diabetic rats, and only uniformly diabetic rats were used in this study. […] All the drugs were suspended in 0.5% carboxymethylcellulose sodium (CMC-Na) solution for oral gavage (10 ml/kg) once per day (at 9:00) for 6 weeks. Simultaneously, the Wistar and vehicle groups received vehicle over the treatment period. Food consumption and body weight were measured every week throughout the experimental periods. Non-fasting blood glucose (NFBG) levels were determined by collecting blood samples from the tail vein (at 9:00), and FBG levels were determined after a 6-h fast (at 15:00) on days 0, 7, 14, 21, and 42. On day 28, an oral glucose tolerance test (OGTT) was performed after an overnight fast. […] On day 42, the rats were anesthetized with urethane (1.4 g/kg, dissolved in saline) after an overnight fast and were sacrificed to collect the liver, kidney, heart, and spleen. The organs were weighed after washing with saline and drying to calculate the organ coefficient, namely, the ratio between the weight of organs and the body in each rat. The liver samples were diluted with 3 volumes (0.5 g/1.5 ml) of saline and homogenized. The liver homogenates and plasma samples (100 μl) were precipitated with three volumes of acetonitrile (containing 10 μg/ml tolbutamide). […] Then, 100 μl of the original mobile phase was added, and the samples were vortexed for 5 min and centrifuged at 13,000 rpm at 4°C for 10 min. Finally, the supernatant was used for HPLC–QQQ–MS/MS analysis. A non-compartmental analysis was performed using WinNonlin software (Pharsight 6.2, Raleigh, NC, United States) to calculate the PK parameters. The significance of PK parameters in normal rats, generated by the sparse method in WinNonlin, was assessed with Welch’s unequal variances t-test. The significance of the other results was assessed using two-tailed Student’s t-tests. Statistical significance was defined as P < 0.05.

Caco-2 cells = assay: Transport in Caco-2 cells; type: in vitro ADME, human; conditions: Caco-2, no inhibitor; Papp (BL−AP)/Papp (AP−BL)
Protocol: as §2

[11] = read-out: ERpermeability (efflux ratio)
[12] = with BBR 10 μM (co-incubated), Caco-2, TB-2 5 μM in presence of BBR (10 μM), n = 3

For `CC(CCC1(O)OC2CC3C4CCC5CC(OC6OC(CO)C(O)C(O)C6OC6OC(CO)C(O)C(O)C6O)CCC5(C)C4CCC3(C)C2C1C)COC1OC(CO)C(O)C(O)C1O` (stereo not shown) [TB-2, timosaponin B2], the “effect on body weight or food consumption vs vehicle” value ([1]; 6-week oral treatment) was “no effect”, the “effect on organ coefficients (liver and kidney) vs vehicle” value ([1]; day 42) was “limited” and the “FBG levels compared with the vehicle group (in words)” value (GK rats [2]) was “no significant differences”. The “NFBG levels compared with the vehicle group (in words)” value (GK rats [2]) was “no significant differences”, the Tmax (in vivo [3]; 33.3 mg/kg) was 1 h and the Tmax (in vivo [3]; 100 mg/kg) was 2 h. The half-life (in vivo [3]; 100 mg/kg) was 22.8 h, the “ERliver (liver extraction ratio)” value [4] was 77.8% and the “ERliver (liver extraction ratio)” value ([4]; po, 33.3 mg/kg) was 80.6%. For the same compound, the “effect on BBR metabolism and the generation of M2–M5” value (primary rat hepatocytes) was “did not significantly affect”, the “improvement of levels on co-administration” value [5] was 141–230% and the efflux ratio at 120 min [6, 11] was 1.1. For the same compound, the efflux ratio at 120 min, 5 μM ([6]; Caco-2, with BBR 10 μM (co-incubated), Caco-2, TB-2 5 μM in presence of BBR (10 μM), read-out: ERpermeability (efflux ratio)) was 1, the Papp A→B at 120 min, 5 μM [6, 12] was 0.081 ± 0.035 ×10⁻⁶ cm/s and the Papp B→A at 120 min, 5 μM [6, 12] was 0.085 ± 0.035 ×10⁻⁶ cm/s. The Papp A→B at 120 min ([6]; n = 3) was 0.057 ± 0.032 ×10⁻⁶ cm/s, the Papp B→A at 120 min ([6]; n = 3) was 0.061 ± 0.043 ×10⁻⁶ cm/s and the “decrease in the AUC of blood glucose in OGTT vs vehicle” value (GK rats [7]) was “didn’t significantly decrease”. The Tmax (in vivo [8]; 33.3 mg/kg) was 0.2 h, the half-life (in vivo [8]; 100 mg/kg) was 23.2 h and the Tmax (in vivo [8]; 100 mg/kg) was 2 h. The bioavailability [9] was 1.2%, the AUC ([10]; male, GK, po, 33.3 mg/kg) was 100.4 ± 26.2 h ∗ ng/ml and the T1/2 ([10]; male, GK, po, 33.3 mg/kg) was 8.6 ± 1.8 h. For the same compound, the Tmax ([10]; male, GK, po, 33.3 mg/kg) was 1.1 ± 0.3 h, the AUC ([10]; male, GK, po, 33.3 mg/kg, AUC) was 77.5 ± 13.6 ng·h/mL and the half-life ([10]; male, GK, po, 33.3 mg/kg, T1/2) was 14.3 ± 5.3 h. For the same compound, the Tmax ([10]; male, GK, po, 33.3 mg/kg, Tmax) was 2.1 ± 0.6 h, the “increase in AUC on combination vs single treatment” value [10] was “no significant improvement” and the “increase in Cmax on combination vs single treatment” value [10] was “no significant improvement”.
Compound `C[C@H]1O[C@@H](O[C@H]2[C@@H](O)C[C@H](O[C@H]3[C@@H](O)C[C@H](O[C@H]4CC[C@@]5(C)[C@H](CC[C@@H]6[C@@H]5C[C@@H](O)[C@]5(C)[C@@H](C7=CC(=O)OC7)CC[C@]65O)C4)O[C@@H]3C)O[C@@H]2C)C[C@H](O)[C@@H]1O` [Digoxin, digoxin] has an efflux ratio at 120 min [6, 11] of roughly 130, a Papp A→B at 120 min ([6]; n = 3) of 0.191 ± 0.02 ×10⁻⁶ cm/s and a Papp B→A at 120 min ([6]; n = 3) of 26.5 ± 1.91 ×10⁻⁶ cm/s. For the same compound, the “ERpermeability (efflux ratio)” value (Caco-2 cells) was 138.8.
